Measured values from ChEMBL document CHEMBL5370646, “Synthesis and Conformational Analysis of FR901464-Based RNA Splicing Modulators and Their Synergism in Drug-Resistant Cancers” (J Med Chem, 2023).
Activity calls are given as the source filed them. The calls are words filed in the database; no cut-off is given here.

Experiments:
[1] = Synergistic antiproliferative activity against human Osimertinib-resistant HCC827AR cell assessed as combination index at 1.5 nM incubated for 72 hrs in presence of 2 uM osimertinib by WST-1 assay; type: functional
[2] = system: HCT-116; experiment: Modulation of RNA splicing in human HCT-116 cells assessed as decrease in MCL-1L expression by Western blot analysis; type: functional, cell-based; conditions: dose 3-100 nM
[3] = Synergistic antiproliferative activity against human Osimertinib-resistant HCC827AR cell assessed as combination index at 1.5 nM incubated for 72 hrs in presence of 0.25 uM osimertinib by WST-1 assay; type: functional
[4] = Synergistic antiproliferative activity against human Osimertinib-resistant HCC827AR cell assessed as combination index at 1.5 nM incubated for 72 hrs in presence of 4 uM osimertinib by WST-1 assay; type: functional
[5] = system: DMS-53; experiment: Synergistic antiproliferative activity against human DMS-53 cells assessed as combination index at 0.5 nM incubated for 72 hrs in presence of […] venetoclax by WST-1 assay; type: functional
[6] = system: DMS-53; experiment: Synergistic antiproliferative activity against human DMS-53 cells assessed as combination index at 0.5 nM incubated for 72 hrs in presence of 50 uM venetoclax by WST-1 assay; type: functional
[7] = system: DMS-114; experiment: Synergistic antiproliferative activity against human DMS-114 cells assessed as combination index at 1 nM incubated for 72 hrs in presence of 2.4 uM venetoclax by WST-1 assay; type: functional
[8] = Growth inhibition of mouse FL83B cells assessed as reduction in cell viability incubated for 72 hrs; type: toxicity, cell-based
[9] = system: DMS-53; experiment: Synergistic antiproliferative activity against human DMS-53 cells assessed as combination index at 0.5 nM incubated for 72 hrs in presence of […] venetoclax by WST-1 assay; type: functional
[10] = system: DMS-114; experiment: Synergistic antiproliferative activity against human DMS-114 cells assessed as combination index at 2 nM incubated for 72 hrs in presence of 4.8 uM venetoclax by WST-1 assay; type: functional
[11] = system: DMS-114; experiment: Synergistic antiproliferative activity against human DMS-114 cells assessed as combination index at 3 nM incubated for 72 hrs in presence of 3.6 uM venetoclax by WST-1 assay; type: functional
[12] = system: DMS-53; experiment: Synergistic antiproliferative activity against human DMS-53 cells assessed as combination index at 2 nM incubated for 72 hrs in presence of […] venetoclax by WST-1 assay; type: functional
[13] = system: SW48; experiment: Growth inhibition of human SW48 cells assessed as reduction in cell viability incubated for 72 hrs; type: functional
[14] = system: DMS-53; experiment: Synergistic antiproliferative activity against human DMS-53 cells assessed as combination index at 2 nM incubated for 72 hrs in presence of 200 […] by WST-1 assay; type: functional
[15] = Synergistic antiproliferative activity against human Osimertinib-resistant HCC827AR cell assessed as combination index at 2.5 nM incubated for 72 hrs in presence of 0.25 uM osimertinib by WST-1 assay; type: functional
[16] = system: DMS-114; experiment: Synergistic antiproliferative activity against human DMS-114 cells assessed as combination index at 3 nM incubated for 72 hrs in presence of 6 uM venetoclax by WST-1 assay; type: functional
[17] = Synergistic antiproliferative activity against human Osimertinib-resistant HCC827AR cell assessed as combination index at 2 nM incubated for 72 hrs in presence of 0.25 uM osimertinib by WST-1 assay; type: functional
[18] = system: DMS-114; experiment: Synergistic antiproliferative activity against human DMS-114 cells assessed as combination index at 2 nM incubated for 72 hrs in presence of 6 uM venetoclax by WST-1 assay; type: functional
[19] = Synergistic antiproliferative activity against human Osimertinib-resistant HCC827AR cell assessed as combination index at 2 nM incubated for 72 hrs in presence of 2 uM osimertinib by WST-1 assay; type: functional
[20] = Synergistic antiproliferative activity against human Osimertinib-resistant HCC827AR cell assessed as combination index at 1.5 nM incubated for 72 hrs in presence of 1 uM osimertinib by WST-1 assay; type: functional
[21] = Metabolic stability in CD1 mouse plasma measured after 48 hrs by LC-MS analysis; type: ADME, cell-free
[22] = system: DMS-114; experiment: Synergistic antiproliferative activity against human DMS-114 cells assessed as combination index at 1 nM incubated for 72 hrs in presence of 4.8 uM venetoclax by WST-1 assay; type: functional
[23] = system: DMS-53; experiment: Synergistic antiproliferative activity against human DMS-53 cells assessed as combination index at 1 nM incubated for 72 hrs in presence of 25 uM venetoclax by WST-1 assay; type: functional
[24] = Synergistic antiproliferative activity against human Osimertinib-resistant HCC827AR cell assessed as combination index at 2 nM incubated for 72 hrs in presence of 4 uM osimertinib by WST-1 assay; type: functional
[25] = Synergistic antiproliferative activity against human Osimertinib-resistant HCC827AR cell assessed as combination index at 1 nM incubated for 72 hrs in presence of 4 uM osimertinib by WST-1 assay; type: functional
[26] = Synergistic antiproliferative activity against human Osimertinib-resistant HCC827AR cell assessed as combination index at 2.5 nM incubated for 72 hrs in presence of 4 uM osimertinib by WST-1 assay; type: functional
[27] = system: DMS-114; experiment: Synergistic antiproliferative activity against human DMS-114 cells assessed as combination index at 2 nM incubated for 72 hrs in presence of 12 uM venetoclax by WST-1 assay; type: functional
[28] = system: DMS-114; experiment: Synergistic antiproliferative activity against human DMS-114 cells assessed as combination index at 1 nM incubated for 72 hrs in presence of 6 uM venetoclax by WST-1 assay; type: functional
[29] = system: DMS-114; experiment: Synergistic antiproliferative activity against human DMS-114 cells assessed as combination index at 3 nM incubated for 72 hrs in presence of 2.4 uM venetoclax by WST-1 assay; type: functional
[30] = Synergistic antiproliferative activity against human Osimertinib-resistant HCC827AR cell assessed as combination index at 2 nM incubated for 72 hrs in presence of 0.50 uM osimertinib by WST-1 assay; type: functional
[31] = Synergistic antiproliferative activity against human Osimertinib-resistant HCC827AR cell assessed as combination index at 1 nM incubated for 72 hrs in presence of 0.50 uM osimertinib by WST-1 assay; type: functional
[32] = system: DMS-114; experiment: Synergistic antiproliferative activity against human DMS-114 cells assessed as combination index at 2 nM incubated for 72 hrs in presence of 2.4 uM venetoclax by WST-1 assay; type: functional
[33] = system: DMS-114; experiment: Modulation of RNA splicing in human DMS-114 cells at 3 to 30 nM by Western blot analysis; type: functional, cell-based; conditions: dose 3-30 nM
[34] = Growth inhibition of human CCD-841CoN cells assessed as reduction in cell viability incubated for 72 hrs; type: toxicity, cell-based
[35] = system: DMS-53; experiment: Synergistic antiproliferative activity against human DMS-53 cells assessed as combination index at 2 nM incubated for 72 hrs in presence of 25 […] by WST-1 assay; type: functional
[36] = system: DMS-114; experiment: Synergistic antiproliferative activity against human DMS-114 cells assessed as combination index at 1 nM incubated for 72 hrs in presence of 3.6 uM venetoclax by WST-1 assay; type: functional
[37] = system: A549; experiment: Growth inhibition of human A549 cells assessed as reduction in cell viability incubated for 72 hrs; type: functional

Q: For `COCO[C@@H](C)/C=C\C(=O)N[C@@H]1C[C@H](C)[C@H](C/C=C(C)/C=C/[C@H]2OC(C)(C)C[C@@]3(CO3)[C@@H]2O)O[C@@H]1C`, which CI [1] is on record?
A: 1.34

Q: And the Activity [2]?
A: Dose-Dependent Effect

Q: And the CI [3]?
A: 0.92

Q: And the CI [4]?
A: 0.92

Q: What about the CI [5] of the same compound?
A: 1.6

Q: And the CI [6]?
A: 1.26

Q: And the CI [7]?
A: 1.11

Q: And the GI50 at 72 h [8]?
A: 5.7 nM

Q: What about the CI [9] of the same compound?
A: 1.52

Q: What about the CI [10] of the same compound?
A: 0.66

Q: And the CI [11]?
A: 0.23

Q: And the CI [12]?
A: 0.42

Q: And the GI50 [13]?
A: 2.5 nM

Q: What about the CI [14] of the same compound?
A: 0.4

Q: What about the CI [15] of the same compound?
A: 0.83

Q: And the CI [16]?
A: 0.2

Q: And the CI [17]?
A: 0.97

Q: And the CI [18]?
A: 0.67

Q: What about the CI [19] of the same compound?
A: 1.17

Q: What about the CI [20] of the same compound?
A: 1.5

Q: What about the Stability [21] of the same compound?
A: Stable

Q: And the CI [22]?
A: 1.3

Q: What about the CI [23] of the same compound?
A: 1.04

Q: And the CI [24]?
A: 0.87

Q: What about the CI [25] of the same compound?
A: 0.93

Q: What about the CI [26] of the same compound?
A: 0.83

Q: And the CI [27]?
A: 0.44

Q: What about the CI [28] of the same compound?
A: 1.46

Q: What about the CI [29] of the same compound?
A: 0.21

Q: What about the CI [30] of the same compound?
A: 1.08

Q: What about the CI [31] of the same compound?
A: 1.42

Q: And the CI [32]?
A: 0.69

Q: What about the Activity [33] of the same compound?
A: Active

Q: And the GI50 at 72 h [34]?
A: 9.6 nM

Q: And the CI [35]?
A: 0.58

Q: What about the CI [36] of the same compound?
A: 1.34

Q: What about the GI50 [37] of the same compound?
A: 3.9 nM
